Assay: isobaric coefficient of expansion
Details: calorimetric method

CCCCCCO [hexan-1-ol]
isobaric coefficient of expansion
Details	5000 kPa	10000 kPa	15000 kPa	20000 kPa	25000 kPa	30000 kPa	35000 kPa	40000 kPa	45000 kPa	50000 kPa
278.15 K	0.000821 1/K	0.0008 1/K	0.000788 1/K	0.000778 1/K	0.00076 1/K	0.000748 1/K	0.000733 1/K	0.000723 1/K	0.000716 1/K	0.000708 1/K
298.15 K	0.00085 1/K	0.000832 1/K	0.000812 1/K	0.000796 1/K	0.00078 1/K	0.000764 1/K	0.000749 1/K	0.000734 1/K	0.000724 1/K	0.000712 1/K
328.15 K	0.000929 1/K	0.0009 1/K	0.000876 1/K	0.000854 1/K	0.000833 1/K	0.000813 1/K	0.000794 1/K	0.000776 1/K	0.000759 1/K	0.000745 1/K
348.15 K	0.000995 1/K	0.00096 1/K	0.000929 1/K	0.000903 1/K	0.000875 1/K	0.000852 1/K	0.000831 1/K	0.000808 1/K	0.000791 1/K	0.000772 1/K

Source: the NIST ThermoML archive (doi:10.1016/j.fluid.2008.10.003)
